Measurements from patent publication US20230293630A1, “Coronavirus T Cell Epitopes and Uses Thereof” (priority 2020, published 2023).

tested on: SARS-CoV-2-specific CD4+ T cells (OX40+CD137+) in PBMC; experiment: not given; type: cell-based, human; conditions: not given

| Substance | Frequency of response (%) | Magnitude by # of responding donors | Sum of response |
| --- | --- | --- | --- |
| FTINCQEPKLGSLVV | 27 | 167 | 502 |
| SSANNCTFEYVSQPF | 27 | 1426 | 4279 |

same assay, conditions: CD4+ T cell epitopes identified by AIM assay; percent of tested donors responding

| Substance | Frequency of response (%) |
| --- | --- |
| TRFQTLLALHRSYLT | 18 |
| AYSNNSIAIPTNFTI | 8 |
| QSINFVRIIMRLWLC [SEQ ID NO 252] | 21 |
| AQYTSALLAGTITSG | 9 |

same assay, conditions: CD4+ T cell epitopes identified by AIM assay; share of donors responding

| Substance | Frequency of response (%) |
| --- | --- |
| EHVTFFIYNKIVDEP | 14 |
| YYRRATRRIRGGDGK | 23 |
| VLAAVYRINWITGGI | 42 |
| NRNRFLYIIKLIFLW | 13 |
| VTKNSKVQIGEYTFE | 8 |
| TRSMWSFNPETNILL | 17 |
| TDTGVEHVTFFIYNK | 7 |
| VVLSFELLHAPATVC | 7 |
| DDQIGYYRRATRRIR [SEQ ID NO 245] | 23 |
| KKPRQKRTATKAYNV | 31 |
| CVADYSVLYNSASFS | 8 |
| HWFVTQRNFYEPQII | 7 |
| SVLHSTQDLFLPFFS | 15 |
| NVLFSTVFPPTSFGP | 7 |
| LGVYYHKNNKSWMES | 9 |
| ASAFFGMSRIGMEVT | 8 |
| TNSRIKASMPTTIAK | 8 |
| ASRELKVTFFPDLNG | 15 |
| STECSNLLLQYGSFC | 8 |
| FTGYRVTKNSKVQIG | 8 |
| IATNGPLKVGGSCVL | 8 |

| Substance | Frequency of response (%) |
| --- | --- |
| SLQSCTQHQPYVVDD | 9 |
| EELKKLLEQWNLVIG | 13 |
| FKIYSKHTPINLVRD | 18 |
| VPGLPGTILRTTNGD | 9 |
| YPKCDRAMPNMLRIM | 7 |
| NAPRITFGGPSDSTG | 6 |
| GGDGKMKDLSPRWYF | 15 |
| WNSNNLDSKVGGNYN | 9 |
| QFAYANRNRFLYIIK | 20 |
| GMEVTPSGTWLTYTG | 8 |
| HCANFNVLFSTVFPP | 7 |
| FIASFRLFARTRSMW | 8 |
| IQYIDIGNYTVSCLP | 9 |
| SHRFYRLANECAQVL | 6 |
| RAMPNMLRIMASLVL | 7 |
| QPYRVVVLSFELLHA | 7 |
| KNTQEVFAQVKQIYK | 8 |
| NPVLPFNDGVYFAST | 9 |
| LVAAGLEAPFLYLYA | 9 |
| QYGDCLGDIAARDLI | 8 |
| SIVAGGIVAIVVTCL | 9 |

same assay, conditions: CD4+ T cell epitopes identified by AIM assay; sum of response per responding donor

| Substance | Magnitude by # of responding donors |
| --- | --- |
| EHVTFFIYNKIVDEP | 139 |
| YYRRATRRIRGGDGK | 197 |
| VLAAVYRINWITGGI | 504 |
| TRFQTLLALHRSYLT | 2172 |
| NRNRFLYIIKLIFLW | 210 |
| VTKNSKVQIGEYTFE | 118 |
| TRSMWSFNPETNILL | 205 |
| TDTGVEHVTFFIYNK | 118 |
| VVLSFELLHAPATVC | 317 |
| DDQIGYYRRATRRIR [SEQ ID NO 245] | 268 |
| KKPRQKRTATKAYNV | 227 |
| CVADYSVLYNSASFS | 210 |
| HWFVTQRNFYEPQII | 598 |
| SVLHSTQDLFLPFFS | 305 |
| NVLFSTVFPPTSFGP | 109 |
| LGVYYHKNNKSWMES | 259 |
| ASAFFGMSRIGMEVT | 337 |
| AYSNNSIAIPTNFTI | 112 |
| TNSRIKASMPTTIAK | 360 |
| ASRELKVTFFPDLNG | 162 |
| STECSNLLLQYGSFC | 314 |
| FTGYRVTKNSKVQIG | 116 |
| QSINFVRIIMRLWLC [SEQ ID NO 252] | 168 |

| Substance | Magnitude by # of responding donors |
| --- | --- |
| IATNGPLKVGGSCVL | 112 |
| SLQSCTQHQPYVVDD | 1222 |
| EELKKLLEQWNLVIG | 223 |
| FKIYSKHTPINLVRD | 484 |
| VPGLPGTILRTTNGD | 439 |
| YPKCDRAMPNMLRIM | 153 |
| NAPRITFGGPSDSTG | 259 |
| GGDGKMKDLSPRWYF | 148 |
| WNSNNLDSKVGGNYN | 101 |
| QFAYANRNRFLYIIK | 326 |
| GMEVTPSGTWLTYTG | 380 |
| HCANFNVLFSTVFPP | 211 |
| FIASFRLFARTRSMW | 353 |
| IQYIDIGNYTVSCLP | 1805 |
| SHRFYRLANECAQVL | 535 |
| RAMPNMLRIMASLVL | 144 |
| QPYRVVVLSFELLHA | 183 |
| KNTQEVFAQVKQIYK | 125 |
| AQYTSALLAGTITSG | 336 |
| NPVLPFNDGVYFAST | 413 |
| LVAAGLEAPFLYLYA | 133 |
| QYGDCLGDIAARDLI | 152 |
| SIVAGGIVAIVVTCL | 109 |

same assay, conditions: CD4+ T cell epitopes identified by AIM assay; total response

| Substance | Sum of response |
| --- | --- |
| EHVTFFIYNKIVDEP | 277 |
| YYRRATRRIRGGDGK | 592 |
| VLAAVYRINWITGGI | 2519 |
| NRNRFLYIIKLIFLW | 420 |
| VTKNSKVQIGEYTFE | 118 |
| TRSMWSFNPETNILL | 410 |
| TDTGVEHVTFFIYNK | 118 |
| VVLSFELLHAPATVC | 317 |
| DDQIGYYRRATRRIR [SEQ ID NO 245] | 803 |
| KKPRQKRTATKAYNV | 907 |
| CVADYSVLYNSASFS | 210 |
| HWFVTQRNFYEPQII | 598 |
| SVLHSTQDLFLPFFS | 609 |
| NVLFSTVFPPTSFGP | 109 |
| LGVYYHKNNKSWMES | 259 |
| ASAFFGMSRIGMEVT | 337 |
| TNSRIKASMPTTIAK | 360 |
| ASRELKVTFFPDLNG | 324 |
| STECSNLLLQYGSFC | 314 |
| FTGYRVTKNSKVQIG | 116 |
| IATNGPLKVGGSCVL | 112 |

| Substance | Sum of response |
| --- | --- |
| SLQSCTQHQPYVVDD | 1222 |
| EELKKLLEQWNLVIG | 446 |
| FKIYSKHTPINLVRD | 967 |
| VPGLPGTILRTTNGD | 439 |
| YPKCDRAMPNMLRIM | 153 |
| NAPRITFGGPSDSTG | 259 |
| GGDGKMKDLSPRWYF | 295 |
| WNSNNLDSKVGGNYN | 101 |
| QFAYANRNRFLYIIK | 978 |
| GMEVTPSGTWLTYTG | 380 |
| HCANFNVLFSTVFPP | 211 |
| FIASFRLFARTRSMW | 353 |
| IQYIDIGNYTVSCLP | 1805 |
| SHRFYRLANECAQVL | 535 |
| RAMPNMLRIMASLVL | 144 |
| QPYRVVVLSFELLHA | 183 |
| KNTQEVFAQVKQIYK | 125 |
| NPVLPFNDGVYFAST | 413 |
| LVAAGLEAPFLYLYA | 133 |
| QYGDCLGDIAARDLI | 152 |
| SIVAGGIVAIVVTCL | 109 |

same assay, conditions: CD4+ T cell epitopes identified by AIM assay; total response summed over donors

| Substance | Sum of response |
| --- | --- |
| TRFQTLLALHRSYLT | 4343 |
| AYSNNSIAIPTNFTI | 112 |
| QSINFVRIIMRLWLC [SEQ ID NO 252] | 505 |
| AQYTSALLAGTITSG | 336 |

tested on: human T cells; experiment: T cell cytokine SFC response to cross-reactive CD4 epitopes (Tables 6-8); type: cell-based; conditions: cross-reactive CD4 non-spike SARS-CoV-2 epitopes; all cytokines

| Substance | Total SFC [SFC] |
| --- | --- |
| 245 (DDQIGYYRRATRRIR) [compound 245] | 787 |
| 847 (MKIILFLALITLATC) [compound 847] | 373 |
| 807 (LAILTALRLCAYCCN) [compound 807] | 1800 |
| 247 (LLLLDRLNQLESKMS) [compound 247] | 1053 |
| 246 (DAALALLLLDRLNQL) [compound 246] | 3813 |
| 848 (VKHVYQLRARSVSPK) [compound 848] | 3640 |
| 820 (EEIAIILASFSASTS) [compound 820] | 13813 |

same assay, conditions: cross-reactive CD4 non-spike epitopes; IFNg spot forming cells

| Substance | IFNg |
| --- | --- |
| 245 (DDQIGYYRRATRRIR) [compound 245] | 400 |
| 847 (MKIILFLALITLATC) [compound 847] | 293 |
| 807 (LAILTALRLCAYCCN) [compound 807] | 1760 |
| 247 (LLLLDRLNQLESKMS) [compound 247] | 1053 |
| 246 (DAALALLLLDRLNQL) [compound 246] | 3520 |
| 848 (VKHVYQLRARSVSPK) [compound 848] | 2947 |
| 820 (EEIAIILASFSASTS) [compound 820] | 7773 |

same assay, conditions: cross-reactive CD4 non-spike epitopes; IL5 spot forming cells

| Substance | IL5 |
| --- | --- |
| 245 (DDQIGYYRRATRRIR) [compound 245] | 0 |
| 847 (MKIILFLALITLATC) [compound 847] | 0 |
| 807 (LAILTALRLCAYCCN) [compound 807] | 0 |
| 247 (LLLLDRLNQLESKMS) [compound 247] | 0 |
| 246 (DAALALLLLDRLNQL) [compound 246] | 0 |
| 848 (VKHVYQLRARSVSPK) [compound 848] | 227 |
| 820 (EEIAIILASFSASTS) [compound 820] | 1587 |

same assay, conditions: cross-reactive CD4 non-spike epitopes; IL13 spot forming cells

| Substance | IL13 |
| --- | --- |
| 245 (DDQIGYYRRATRRIR) [compound 245] | 120 |
| 847 (MKIILFLALITLATC) [compound 847] | 0 |
| 807 (LAILTALRLCAYCCN) [compound 807] | 0 |
| 247 (LLLLDRLNQLESKMS) [compound 247] | 0 |
| 246 (DAALALLLLDRLNQL) [compound 246] | 0 |
| 848 (VKHVYQLRARSVSPK) [compound 848] | 0 |
| 820 (EEIAIILASFSASTS) [compound 820] | 1507 |
